Assay results from ChEMBL document CHEMBL1955844, “Discovery of a series of imidazopyrazine small molecule inhibitors of the kinase MAPKAPK5, that show activity using in vitro and in vivo models of rheumatoid arthritis” (Bioorg Med Chem Lett, 2012).

Columns and labels:
[1] = target: T1, MAP kinase-activated protein kinase 5 (Homo sapiens, UniProt Q8IW41); assay: Inhibition of MAPKAPK5
T1 sequence (Q8IW41 whole entry): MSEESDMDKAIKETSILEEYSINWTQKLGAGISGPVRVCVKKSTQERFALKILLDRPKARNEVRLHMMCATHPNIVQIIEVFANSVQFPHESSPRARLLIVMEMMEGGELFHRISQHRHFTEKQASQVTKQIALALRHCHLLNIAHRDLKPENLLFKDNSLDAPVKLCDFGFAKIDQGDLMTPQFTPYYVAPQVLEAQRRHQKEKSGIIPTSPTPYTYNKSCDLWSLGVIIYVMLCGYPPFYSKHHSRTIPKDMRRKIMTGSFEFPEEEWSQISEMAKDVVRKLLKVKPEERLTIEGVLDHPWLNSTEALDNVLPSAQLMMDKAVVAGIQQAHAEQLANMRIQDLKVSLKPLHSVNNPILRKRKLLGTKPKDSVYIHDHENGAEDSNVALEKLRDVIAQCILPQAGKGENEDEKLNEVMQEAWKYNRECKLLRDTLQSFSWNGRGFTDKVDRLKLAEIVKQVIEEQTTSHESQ

[2] = target: T1, MAP kinase-activated protein kinase 5; assay: Inhibition of MAPKAPK5 in synovial fibroblast from rheumatoid arthritis patient assessed as inhibition of TNF-alpha-induced MMP1 expression incubated for 30 mins prior to TNFalpha-challenge measured after 48 hrs by ELISA

IC50 [1] [µM] | IC50 [2] [µM] | Structure (SMILES)
2.39 | > 10 | NC(=O)c1ccc(-c2cnc(Nc3ccc(N4CCOCC4)cc3)c3nccn23)cc1F
> 10 |  | c1cn2c(-c3ccc4[nH]ccc4c3)cnc(Nc3ccc(N4CCOCC4)cc3)c2n1
> 10 |  | CN(c1ccc(N2CCOCC2)cc1)c1ncc(-c2cn[nH]c2)n2ccnc12
2.82 | > 10 | NC(=O)c1cnc(-c2cnc(Nc3ccc(N4CCOCC4)cc3)c3nccn23)s1
1.49 | > 10 | c1cn2c(-c3c[nH]nn3)cnc(Nc3ccc(N4CCOCC4)cc3)c2n1
> 10 |  | CN(C)c1cc(-c2cnc(Nc3ccc(N4CCOCC4)cc3)c3nccn23)ccn1
> 10 |  | CCOc1cc(-c2cnc(Nc3ccc(N4CCOCC4)cc3)c3nccn23)ccn1
> 10 | > 10 | NS(=O)(=O)c1ccc(-c2cnc(Nc3ccc(N4CCOCC4)cc3)c3nccn23)cc1
3.2 | > 10 | NC(=O)c1ncc(-c2cnc(Nc3ccc(N4CCOCC4)cc3)c3nccn23)s1
3.73 |  | CN1CCN(c2ccc(Nc3ncc(-c4cc[nH]c(=O)c4)n4ncnc34)cc2)CC1
